In ChEMBL document CHEMBL4742387, “Condensed tricyclic compounds as protein kinase inhibitors” (2018):
Each block holds one compound with its values, some of them ahead of it.

How the values were obtained:
[1] = target: CDK8/Cyclin C (Homo sapiens, UniProt P49336); assay: Inhibition of kinase tracer 236 binding to full-length His-tagged recombinant human CDK8/cyclin C incubated for 60 mins by FRET based LanthaScreen Eu-Kinase binding assay; assay type: protein-complex assay
[2] = target: T1, Serine/threonine-protein kinase haspin (Homo sapiens, UniProt Q8TF76); assay: Inhibition of GST-tagged recombinant human haspin kinase domain incubated for 60 mins by ADP-Glo luminescent kinase assay
T1 sequence (Q8TF76 whole entry): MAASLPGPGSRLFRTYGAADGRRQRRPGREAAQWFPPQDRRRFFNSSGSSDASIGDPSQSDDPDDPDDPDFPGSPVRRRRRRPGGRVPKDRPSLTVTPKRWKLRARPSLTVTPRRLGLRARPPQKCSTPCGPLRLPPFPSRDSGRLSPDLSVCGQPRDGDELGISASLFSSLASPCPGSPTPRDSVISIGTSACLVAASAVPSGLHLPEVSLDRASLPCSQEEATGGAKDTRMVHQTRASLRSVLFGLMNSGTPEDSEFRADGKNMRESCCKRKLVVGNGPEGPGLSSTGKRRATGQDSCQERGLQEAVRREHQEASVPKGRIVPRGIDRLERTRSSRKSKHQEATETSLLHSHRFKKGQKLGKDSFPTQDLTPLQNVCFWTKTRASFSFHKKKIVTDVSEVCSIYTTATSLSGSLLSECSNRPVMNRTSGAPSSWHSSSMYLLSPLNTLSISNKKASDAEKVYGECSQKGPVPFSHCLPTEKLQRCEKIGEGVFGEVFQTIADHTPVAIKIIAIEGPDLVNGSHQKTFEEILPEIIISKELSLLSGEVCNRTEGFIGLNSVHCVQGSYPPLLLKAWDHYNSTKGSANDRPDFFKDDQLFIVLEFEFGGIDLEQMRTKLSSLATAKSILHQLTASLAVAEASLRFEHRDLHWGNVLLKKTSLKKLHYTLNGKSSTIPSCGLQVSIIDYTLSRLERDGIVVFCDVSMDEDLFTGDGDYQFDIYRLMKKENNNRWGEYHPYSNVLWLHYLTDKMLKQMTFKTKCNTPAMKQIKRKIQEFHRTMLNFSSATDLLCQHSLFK

[3] = tested on: MOLM-13; assay: Antiproliferative activity against human MOLM-13 cells assessed as reduction in cell proliferation by CellTiter-Glo luminescent cell viability assay; assay type: functional
[4] = target: T2, Cyclin-dependent kinase 8 (Homo sapiens, UniProt P49336); assay: Inhibition of CDK8 in human SW-620 cells assessed as reduction in STAT1 S727 phosphorylation pre-incubated for 1 hr before IFNgamma stimulation for 3 hrs by Western blot analysis; assay type: cell-based; conditions: time 4.0 hrs
[5] = target: T3, Serine/threonine-protein kinase haspin (Homo sapiens) (UniProt Q8TF76); assay: Inhibition of haspin in human SW620 cells assessed as reduction in IFNgamma-induced H3T3 phosphorylation pre-incubated for 1 hr before IFNgamma stimulation for 3 hrs by Western blot analysis; assay type: cell-based; conditions: SW-620, time 4.0 hrs
T3 sequence (whole entry): T1 sequence (Q8TF76 whole entry)

[6] = target: T2, Cyclin-dependent kinase 8; assay: Inhibition of CDK8 in human SW-620 cells assessed as reduction in IFNgamma-induced STAT1 S727 phosphorylation pre-incubated for 1 hr before IFNgamma stimulation for 3 hrs by Western blot analysis; assay type: cell-based; conditions: time 4.0 hrs
[7] = target: T3, Serine/threonine-protein kinase haspin (Homo sapiens); assay: Inhibition of haspin in synchronized human SW620 cells assessed as reduction in IFNgamma-induced H3T3 phosphorylation pre-incubated for 1 hr before IFNgamma stimulation for 3 hrs by Western blot analysis; assay type: cell-based; conditions: SW-620, time 4.0 hrs
[8] = tested on: SW-620; assay: Inhibition of colony formation of human SW-620 cells incubated for 11 days (Every 3 days medium is changed by fresh medium and compounds were added freshly) by crystal violet staining based assay; assay type: functional, cell-based
[9] = tested on: SW-620; assay: Antiproliferative activity against human SW-620 cells assessed as reduction in cell proliferation by CellTiter-Glo luminescent cell viability assay; assay type: functional; conditions: Homo sapiens, SW-620
[10] = tested on: MDA-MB-231; assay: Antiproliferative activity against human MDA-MB-231 cells assessed as reduction in cell proliferation by CellTiter-Glo luminescent cell viability assay; assay type: functional; conditions: Homo sapiens, MDA-MB-231
[11] = tested on: MV4-11; assay: Antiproliferative activity against human MV4-11 cells assessed as reduction in cell proliferation by CellTiter-Glo luminescent cell viability assay; assay type: functional; conditions: Homo sapiens, MV4-11
[12] = target: Cyclin-C/Cyclin-dependent kinase 19 (Homo sapiens, UniProt Q9BWU1); assay: Inhibition of kinase tracer 236 binding to full-length His-tagged recombinant human CDK19/cyclin C incubated for 60 mins by FRET based LanthaScreen Eu-Kinase binding assay; assay type: protein-complex assay
[13] = tested on: DU-145; assay: Antiproliferative activity against human DU-145 cells assessed as reduction in cell proliferation by CellTiter-Glo luminescent cell viability assay; assay type: functional
[14] = tested on: SK-MEL19; assay: Antiproliferative activity against human SK-MEL19 cells assessed as reduction in cell proliferation by CellTiter-Glo luminescent cell viability assay; assay type: functional
[15] = tested on: BXPC-3; assay: Antiproliferative activity against human BXPC-3 cells assessed as reduction in cell proliferation by CellTiter-Glo luminescent cell viability assay; assay type: functional
[16] = tested on: HCT-116; assay: Antiproliferative activity against human HCT-116 cells assessed as reduction in cell proliferation by CellTiter-Glo luminescent cell viability assay; assay type: functional

CDK8/Cyclin C, sequence (P49336 whole entry, the tested form may be a part): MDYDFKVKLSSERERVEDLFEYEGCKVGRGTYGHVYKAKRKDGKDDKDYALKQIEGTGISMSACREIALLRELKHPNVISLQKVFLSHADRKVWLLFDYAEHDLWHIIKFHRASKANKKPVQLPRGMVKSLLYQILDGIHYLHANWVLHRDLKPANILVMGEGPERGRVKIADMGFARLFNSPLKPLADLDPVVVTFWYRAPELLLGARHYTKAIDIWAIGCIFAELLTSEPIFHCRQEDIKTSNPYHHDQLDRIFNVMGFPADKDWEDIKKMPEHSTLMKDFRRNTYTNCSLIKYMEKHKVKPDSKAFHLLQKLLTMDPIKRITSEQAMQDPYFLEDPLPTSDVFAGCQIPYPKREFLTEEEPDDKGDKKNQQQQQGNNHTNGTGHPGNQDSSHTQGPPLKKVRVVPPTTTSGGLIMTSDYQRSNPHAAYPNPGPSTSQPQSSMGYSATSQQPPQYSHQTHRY
CDK8/Cyclin C, sequence (P24863 whole entry, further chain, the tested form may be a part): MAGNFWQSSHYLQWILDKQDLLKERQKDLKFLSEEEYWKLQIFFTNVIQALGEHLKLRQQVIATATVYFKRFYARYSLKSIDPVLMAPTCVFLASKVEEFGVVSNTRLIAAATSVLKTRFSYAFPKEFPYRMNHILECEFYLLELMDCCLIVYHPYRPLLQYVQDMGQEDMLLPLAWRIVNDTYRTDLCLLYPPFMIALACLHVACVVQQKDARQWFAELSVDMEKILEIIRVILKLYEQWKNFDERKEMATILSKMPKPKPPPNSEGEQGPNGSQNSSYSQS
T2 sequence (P49336 whole entry): as the sequence (P49336 whole entry, the tested form may be a part) above
Cyclin-C/Cyclin-dependent kinase 19, sequence (Q9BWU1 whole entry): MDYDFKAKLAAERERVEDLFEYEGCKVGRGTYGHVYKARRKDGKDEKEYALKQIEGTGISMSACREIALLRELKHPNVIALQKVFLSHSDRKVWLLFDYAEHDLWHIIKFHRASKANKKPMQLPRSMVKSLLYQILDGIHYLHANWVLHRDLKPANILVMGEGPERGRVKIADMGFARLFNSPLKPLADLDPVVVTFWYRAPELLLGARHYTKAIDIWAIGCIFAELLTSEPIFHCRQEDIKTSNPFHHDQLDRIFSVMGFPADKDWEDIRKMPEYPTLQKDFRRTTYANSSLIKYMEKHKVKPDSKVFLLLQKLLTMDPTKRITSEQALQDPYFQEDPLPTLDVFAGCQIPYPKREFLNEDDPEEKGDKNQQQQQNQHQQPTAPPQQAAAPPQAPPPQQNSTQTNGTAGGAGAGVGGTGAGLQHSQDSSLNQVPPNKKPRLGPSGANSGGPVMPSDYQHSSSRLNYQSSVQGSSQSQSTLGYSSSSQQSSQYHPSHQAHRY
Cyclin-C/Cyclin-dependent kinase 19, sequence (P24863 whole entry, further chain): as the sequence (P24863 whole entry, further chain, the tested form may be a part) above

IC50 [1]: 1.36 nM
IC50 [2]: 522 nM
GI50 [3]: 1000 nM
SMILES: CCn1c(C(N)=O)cc2c1-c1ccncc1OC2C1CCCCC1 (stereo in doubt; form 2) [listing 1 of 2 here]

INH [4]: < 500 nM
INH [5]: < 500 nM
SMILES: CCn1c(C(N)=O)cc2c1-c1ccncc1OC2C1CCCCC1 (stereo in doubt; form 2) [listing 2 of 2 here]

INH [6]: 500 nM
INH [7]: 0.5 µM
SMILES: NC(=O)c1cc2c([nH]1)-c1ccncc1OC2C1CCOCC1 (stereo in doubt; form 1)

INH [6]: < 500 nM
EC50 [8]: 5430 nM
INH [7]: 0.5 µM
SMILES: COc1ccccc1-c1c2c(n(CCF)c1C(N)=O)-c1ccncc1OC2(C)C

GI50 [9]: 500 nM
SMILES: COc1ccc(S(=O)(=O)Nc2cccnc2Nc2ccc(O)cc2)cc1 [ABT-751]

INH [4]: < 500 nM
INH [5]: < 500 nM
SMILES: CCn1c(C(N)=O)cc2c1-c1ccncc1OC21CCCCC1 [listing 1 of 2 here]

IC50 [1]: 0.407 nM
GI50 [10]: 10000 nM
IC50 [2]: 95.2 nM
GI50 [11]: < 1000 nM
GI50 [9]: 10000 nM
IC50 [12]: 1.41 nM
GI50 ([3]; Homo sapiens, MOLM-13): < 1000 nM
SMILES: CCn1c(C(N)=O)cc2c1-c1ccncc1OC2C1CCCCC1 (stereo in doubt; form 1)

GI50 [10]: 1000 nM
GI50 [11]: < 1000 nM
GI50 [9]: 1000 nM
GI50 ([3]; Homo sapiens, MOLM-13): < 1000 nM
SMILES: CCn1c(C(N)=O)cc2c1-c1ccncc1OC21CCCCC1 [listing 2 of 2 here]

IC50 [1]: 8.5 nM
INH [4]: < 500 nM
GI50 [10]: 10000 nM
INH [6]: < 500 nM
GI50 [11]: < 1000 nM
GI50 [9]: 1000 nM
IC50 [12]: 7.14 nM
GI50 ([3]; Homo sapiens, MOLM-13): 1000 nM
INH [7]: < 0.5 µM
INH [5]: < 500 nM
SMILES: NC(=O)c1cc2c([nH]1)-c1ccncc1O[C@H]2C1CCCCC1

GI50 [11]: < 1000 nM
SMILES: CC1(C)Oc2cncc(Cl)c2-c2[nH]c(C(N)=O)cc21

INH [6]: < 500 nM
INH [7]: 0.5 µM
SMILES: NC(=O)c1cc2c([nH]1)-c1ccncc1OC2C1CCOCC1 (stereo in doubt; form 2)

INH [4]: < 500 nM
GI50 [10]: 1000 nM
INH [6]: < 500 nM
GI50 [11]: < 1000 nM
GI50 [9]: 1000 nM
GI50 ([3]; Homo sapiens, MOLM-13): < 1000 nM
INH [7]: < 0.5 µM
INH [5]: < 500 nM
SMILES: CC1(C)Oc2cnccc2-c2c1cc(C(N)=O)n2CCF

IC50 [1]: < 1.41 nM
SMILES: CCn1c(C(N)=O)c(Cl)c2c1-c1ccncc1OC21CCCCC1

GI50 [10]: 1000 nM
GI50 [11]: < 1000 nM
GI50 [9]: 10000 nM
GI50 ([3]; Homo sapiens, MOLM-13): 1000 nM
SMILES: Cn1c(C(N)=O)cc2c1-c1ccncc1OC2(C)C

GI50 [10]: 1000 nM
GI50 [11]: < 1000 nM
GI50 [9]: 1000 nM
GI50 ([3]; Homo sapiens, MOLM-13): < 1000 nM
SMILES: NC(=O)c1cc2c([nH]1)-c1ccncc1OC21CCN(CCc2ccccc2)CC1

IC50 [1]: < 1.41 nM
IC50 [2]: 355 nM
SMILES: CCn1c(C(N)=O)cc2c1-c1ccncc1OC2C1CCOCC1 (stereo not drawn)

INH [4]: < 500 nM
GI50 [10]: 1000 nM
GI50 [11]: < 1000 nM
GI50 [9]: 1000 nM
GI50 ([3]; Homo sapiens, MOLM-13): < 1000 nM
SMILES: NC(=O)c1cc2c(n1CCF)-c1ccncc1OC21CCC1

GI50 [10]: 10000 nM
GI50 [11]: 1000 nM
SMILES: CC1(C)Oc2cnccc2-c2[nH]c(C(N)=O)cc21

GI50 [13]: 20000 nM
GI50 [14]: 5000 nM
GI50 [15]: 5000 nM
GI50 [16]: 5000 nM
GI50 [9]: 1000 nM
SMILES: C[C@@H](Oc1cc(-c2cnn(C3CCNCC3)c2)cnc1N)c1c(Cl)ccc(F)c1Cl [CRIZOTINIB]
